Measurements: article PMC5940854, “Nitrothiophene carboxamides, a novel narrow spectrum antibacterial series: Mechanism of action and Efficacy” (Scientific Reports, 2018)
In brackets after ≈: the same amount, converted by molar mass. Values belong to the compound of their own block, whether it stands above or below them. Residues, ends and D or L forms follow the SMILES beside them. *: point of attachment. βNA = c1ccc2cc(N*)ccc2c1

Legend:
[1] = biological target: T1, AcrB efflux pump in E. coli BW25113 (Escherichia coli, UniProt P31224); test: Nile red efflux assay (whole-cell competition); format: cell-based
T1 construct: endogenous in cells; host or cells: E. coli BW25113 (wild type)
T1 sequence (P0AE06 25-397): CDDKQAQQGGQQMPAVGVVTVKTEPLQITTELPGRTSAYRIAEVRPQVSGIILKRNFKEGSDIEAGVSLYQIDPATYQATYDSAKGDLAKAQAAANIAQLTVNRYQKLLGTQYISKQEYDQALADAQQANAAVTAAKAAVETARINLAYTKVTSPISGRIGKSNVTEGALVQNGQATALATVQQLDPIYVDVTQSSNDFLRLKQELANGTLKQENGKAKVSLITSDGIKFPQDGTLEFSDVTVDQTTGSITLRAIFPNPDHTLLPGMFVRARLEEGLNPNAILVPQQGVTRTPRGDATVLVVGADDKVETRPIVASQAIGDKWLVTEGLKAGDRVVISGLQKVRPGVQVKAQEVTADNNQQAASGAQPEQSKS
T1 sequence (P31224 whole entry): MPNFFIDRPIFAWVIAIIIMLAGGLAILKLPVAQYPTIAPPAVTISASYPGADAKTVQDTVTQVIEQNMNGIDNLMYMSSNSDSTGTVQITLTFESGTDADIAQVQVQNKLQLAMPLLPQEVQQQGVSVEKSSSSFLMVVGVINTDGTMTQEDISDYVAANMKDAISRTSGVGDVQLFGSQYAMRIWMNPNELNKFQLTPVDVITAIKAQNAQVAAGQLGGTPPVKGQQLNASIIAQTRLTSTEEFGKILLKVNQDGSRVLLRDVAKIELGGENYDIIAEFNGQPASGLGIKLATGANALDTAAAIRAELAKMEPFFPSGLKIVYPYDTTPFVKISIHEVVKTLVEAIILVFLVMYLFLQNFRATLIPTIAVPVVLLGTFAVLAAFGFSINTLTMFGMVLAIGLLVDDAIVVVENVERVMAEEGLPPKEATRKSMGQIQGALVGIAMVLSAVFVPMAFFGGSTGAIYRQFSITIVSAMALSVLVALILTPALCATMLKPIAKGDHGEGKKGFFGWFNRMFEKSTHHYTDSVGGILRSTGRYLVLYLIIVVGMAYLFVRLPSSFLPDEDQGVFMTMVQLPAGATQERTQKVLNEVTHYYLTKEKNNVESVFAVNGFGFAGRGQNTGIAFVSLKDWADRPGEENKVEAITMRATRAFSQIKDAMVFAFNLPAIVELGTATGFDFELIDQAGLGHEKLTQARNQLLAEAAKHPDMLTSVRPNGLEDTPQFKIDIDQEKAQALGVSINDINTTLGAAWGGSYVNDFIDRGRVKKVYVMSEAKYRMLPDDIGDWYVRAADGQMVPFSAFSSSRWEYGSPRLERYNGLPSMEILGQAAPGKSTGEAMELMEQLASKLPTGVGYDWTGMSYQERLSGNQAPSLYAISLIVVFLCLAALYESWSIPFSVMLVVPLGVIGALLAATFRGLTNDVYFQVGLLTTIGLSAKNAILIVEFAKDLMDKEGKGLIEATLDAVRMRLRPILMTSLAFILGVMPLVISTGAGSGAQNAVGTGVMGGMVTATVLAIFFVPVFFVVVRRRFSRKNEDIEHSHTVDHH
T1 sequence (P02930 23-493, further chain): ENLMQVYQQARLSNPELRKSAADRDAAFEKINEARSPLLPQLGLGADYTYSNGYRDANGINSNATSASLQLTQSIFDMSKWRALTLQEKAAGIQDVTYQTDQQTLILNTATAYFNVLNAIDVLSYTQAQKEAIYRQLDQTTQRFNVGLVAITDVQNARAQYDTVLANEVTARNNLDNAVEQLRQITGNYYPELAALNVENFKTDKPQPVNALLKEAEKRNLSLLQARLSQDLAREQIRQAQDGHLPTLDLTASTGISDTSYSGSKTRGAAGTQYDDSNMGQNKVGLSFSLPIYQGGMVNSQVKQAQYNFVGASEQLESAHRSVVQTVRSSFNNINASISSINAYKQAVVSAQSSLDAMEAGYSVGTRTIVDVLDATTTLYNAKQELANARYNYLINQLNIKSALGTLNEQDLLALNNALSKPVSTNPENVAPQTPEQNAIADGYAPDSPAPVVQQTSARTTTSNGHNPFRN
Protocol: The Nile red assay is adopted from Bohnert et al.[18]. An overnight culture of E. coli strain BW25113 is harvested and is resuspended in 20 mM potassium phosphate buffer (pH 7.0) containing 1 mM MgCl2 (PPB). The cells are adjusted to an A660 of 1.0 in PPB and aliquoted into glass tubes (2 ml each). Carbonylcyanide-m-chlorophenylhydrazone (CCCP; a protonophore that uncouples the electron transport chain and thus inhibits AcrB mediated efflux) is added to a final concentration of 10 µM (5 mM stock solution in 50% DMSO) and incubated for 15 minutes before adding the potential competitor at desired concentrations. Nile red is then added (stock solution of 5 mM in 10% dimethyl formamide-90% ethanol [vol/vol]) to a final concentration of 5 µM. The cell suspension is incubated at room temperature on a shaker for 3 hours. The cells are harvested and resuspended in 2 ml PPB in the presence of the competitor. The cell suspension is aliquoted in a fluorimeter cuvette, to which, 100 µl of 1 M Glucose is added to activate the electron transport chain. The rate of efflux is measured by Tefflux50, it is the time taken for 50% of Nile red to be effluxed out in presence of the compounds. The fluorescence is measured (Excitation 552 nm, Emission 636 nm) for 200 seconds.

[2] = biological target: T2, AcrB (Escherichia coli, UniProt P31224); test: Thermal shift assay with CPM dye; design: species or system E. coli; conditions: AcrB vs apo-protein; > 1°C implies binding
T2 construct: Full length acrB gene was amplified from E. coli; BW25113; His-tag (C); made in house; host or cells: E. coli C43(DE3), plasmid pET21a
T2 sequence (P31224 whole entry): as the sequence (P31224 whole entry) above
Protocol: AcrB overexpression protocol is adopted from Du. et al.[31]. Full length acrB gene was amplified from E. coli. BW25113 using Forward Primer 5′-[…]-3′ Reverse Primer 5′-[…]-3′ and cloned into the plasmid pET21a. The resultant plasmid that would express AcrB with a C-terminal His-tag is transformed into E. coli strain C43(DE3). The cells are induced on reaching A600 = 0.6 and transferred to 18 °C. The culture is harvested by centrifugation and re-suspended in Buffer A (100 mM Sodium Phosphate, 100 mM NaCl, 10 mM Imidazole, pH = 7.4, 100 µg/ml protease inhibitor cocktail from Roche and 5 U/ml DNase I and 5 mg/ml lysozyme). The cells are lysed at 15000 psi using Emulsiflex and centrifuged at 8000 g for removing cell debris. The membrane is isolated by centrifuging the resultant supernatant at 125000 g (see Coomassie stained SDS-PAGE of the purified protein Figure S9). Membrane solubilisation is done using Buffer A and 1.5% DDM (n-Dodecyl-β-D-Maltoside). Ni-NTA chromatography is used to purify the His-tagged protein and eluted in Buffer A with 300 mM Imidazole and 1.5% DDM.
The assay is performed according to protocols established elsewhere. CPM (N- [4-(7-diethylamino-4-methyl-3-coumarinyl) phenyl] maleimide) is a thiol specific fluorochrome (Excitation 387 nm, Emission 463 nm) and is non-fluorescent in an unbound state. The proteins, on thermal unfolding exposes cysteines allowing the CPM to bind and fluoresce. […]. The thermal denaturation is performed in a fluorimeter that is heated from 25 to 90 °C at a ramp rate of 1 °C/min. The Tm is calculated by analysing the melting profiles using Boltzmann Sigmoid function (GraphPad Prism) and ∆Tm is calculated by measuring the difference between the Tm of inhibitor bound protein and the apo-protein.

[3] = system: E. coli clinical isolates; test: MIC on panel of E. coli clinical isolates; format: cell-based
[4] = system: ATCC25922; test: MIC on E. coli ATCC25922; format: cell-based; conditions: strain ATCC25922
Protocol: The inoculum used for all the experiments is derived from a single seed lot that is maintained as glycerol stocks at −80 °C and are sub cultured on LB plate for isolated colonies. Single colony of each strain is grown in M9 medium. All test compound stocks and dilutions are prepared in DMSO. Serial two-fold dilutions of compounds are prepared separately, with the concentrations ranging from 2 mg/mL to 0.015 mg/mL. To 150 µl (3–7 × 10^5 CFU/ml) of bacterial culture in 96 well microtitre plates, 3 μL compound from each of the dilutions is added to respective wells to obtain final concentrations ranging from 40 µg/mL to 0.3 µg/mL of the test compounds. Media control, culture control and appropriate reference drug controls are included. […] Growth is monitored by checking absorbance at 600 nm (A600). […] The samples from MIC and above concentrations are plated for MBC (Minimum Bactericidal Concentration). The samples are diluted 1:10 and plated on LB agar plates. […] The killing kinetics is determined by enumerating survivors at various time points following compound exposure. E. coli cells (~10^7 CFU/ml; A600 of 0.1) are treated with various concentrations (40 µg/mL to 0.3 µg/mL) of compounds in a 96-well microtitre plate. At various time intervals (0 to 8 h), 30 μl volumes of treated cultures are serially diluted and plated on LB agar plates. […] Data is expressed as the log10 CFU for each drug treatment.

Structure (SMILES): NC(N)=NCCC[C@H](NC(=O)[C@@H](N)Cc1ccccc1)C(=O)Nc1ccc2ccccc2c1 [PAβN, Phenylalanine-Arginine Beta-Naphthylamide, reference compound] (H-Phe-Arg-βNA)
- Tefflux50 ([1]; 1µM compound, time for 50% of Nile red to be effluxed, read for 200 seconds): 200 s
- Tefflux50 ([1]; 9µM compound): 200 s
- Tefflux50 ([1]; 27µM compound): 200 s
- Tefflux50 ([1]; 81µM compound): 200 s
- Tefflux50 ([1]; 100µM compound): 200 s
- Tefflux50 ([1]; 200µM compound): 200 s
- Tefflux50 ([1]; 400µM compound): 200 s
- ∆Tm [2]: 3.84 °C

- MIC Range ([3]; 75 E.coli clinical isolates): 0.03 to 8 µg/mL
- MIC50 ([3]; Escherichia coli, 75 E.coli clinical isolates, 50% clinical isolates): 0.06 µg/mL (≈ 0.156 µM)
- MIC90 ([3]; Escherichia coli, 75 E.coli clinical isolates, 90% clinical isolates): 8 µg/mL (≈ 20.9 µM)
- MIC ([3]; strain SEC001): > 4 µg/mL
- MIC ([3]; strain SEC002): 0.13 µg/mL (≈ 0.339 µM)
- MIC ([3]; strain SEC003): > 4 µg/mL
- MIC ([3]; strain SEC004): > 4 µg/mL
- MIC ([3]; strain SEC005): 0.06 µg/mL (≈ 0.156 µM)
- MIC ([3]; strain SEC006): 0.03 µg/mL (≈ 0.0782 µM)
- MIC ([3]; strain SEC007): 0.03 µg/mL (≈ 0.0782 µM)
- MIC ([3]; strain SEC008): 0.13 µg/mL (≈ 0.339 µM)
- MIC ([3]; strain SEC011): 0.06 µg/mL (≈ 0.156 µM)
- MIC ([3]; strain SEC012): 0.06 µg/mL (≈ 0.156 µM)
- MIC ([3]; strain SEC013): 0.06 µg/mL (≈ 0.156 µM)
- MIC ([3]; strain SEC014): 0.06 µg/mL (≈ 0.156 µM)
- MIC ([3]; strain SEC015): > 4 µg/mL
- MIC ([3]; strain SEC016): 0.03 µg/mL (≈ 0.0782 µM)
- MIC ([3]; strain SEC017): 0.06 µg/mL (≈ 0.156 µM)
- MIC ([3]; strain SEC018): 0.06 µg/mL (≈ 0.156 µM)
- MIC ([3]; strain SEC019): 0.06 µg/mL (≈ 0.156 µM)
- MIC ([3]; strain SEC020): > 4 µg/mL
- MIC ([3]; strain SEC021): 0.03 µg/mL (≈ 0.0782 µM)
- MIC ([3]; strain SEC022): 0.03 µg/mL (≈ 0.0782 µM)
- MIC ([3]; strain SEC023): 0.25 µg/mL (≈ 0.652 µM)
- MIC ([3]; strain SEC024): 0.25 µg/mL (≈ 0.652 µM)
- MIC ([3]; strain SEC025): 0.25 µg/mL (≈ 0.652 µM)
- MIC ([3]; strain SEC026): 0.13 µg/mL (≈ 0.339 µM)
- MIC ([3]; strain SEC028): 0.03 µg/mL (≈ 0.0782 µM)
- MIC ([3]; strain SEC029): 0.06 µg/mL (≈ 0.156 µM)
- MIC ([3]; strain SEC031): 0.06 µg/mL (≈ 0.156 µM)
- MIC ([3]; strain SEC032): 0.03 µg/mL (≈ 0.0782 µM)
- MIC ([3]; strain SEC033): 0.03 µg/mL (≈ 0.0782 µM)
- MIC ([3]; strain SEC034): 0.03 µg/mL (≈ 0.0782 µM)
- MIC ([3]; strain SEC035): 0.5 µg/mL (≈ 1.3 µM)
- MIC ([3]; strain SEC036): 0.06 µg/mL (≈ 0.156 µM)
- MIC ([3]; strain SEC037): 0.03 µg/mL (≈ 0.0782 µM)
- MIC ([3]; strain SEC038): 0.06 µg/mL (≈ 0.156 µM)
- MIC ([3]; strain SEC039): 0.03 µg/mL (≈ 0.0782 µM)
- MIC ([3]; strain SEC040): 0.06 µg/mL (≈ 0.156 µM)
- MIC ([3]; strain SEC041): > 4 µg/mL
- MIC ([3]; strain SEC042): 2 µg/mL (≈ 5.22 µM)
- MIC ([3]; strain SEC043): 0.06 µg/mL (≈ 0.156 µM)
- MIC ([3]; strain SEC044): 0.13 µg/mL (≈ 0.339 µM)
- MIC ([3]; strain SEC045): 0.06 µg/mL (≈ 0.156 µM)
- MIC ([3]; strain SEC046): 0.03 µg/mL (≈ 0.0782 µM)
- MIC ([3]; strain SEC047): 0.06 µg/mL (≈ 0.156 µM)
- MIC ([3]; strain SEC048): 0.25 µg/mL (≈ 0.652 µM)
- MIC ([3]; strain SEC049): 0.5 µg/mL (≈ 1.3 µM)
- MIC ([3]; strain SEC050): 0.03 µg/mL (≈ 0.0782 µM)
- MIC ([3]; strain SEC051): 0.03 µg/mL (≈ 0.0782 µM)
- MIC ([3]; strain SEC052): 1 µg/mL (≈ 2.61 µM)
- MIC ([3]; strain SEC053): 1 µg/mL (≈ 2.61 µM)
- MIC ([3]; strain SEC054): 0.03 µg/mL (≈ 0.0782 µM)
- MIC ([3]; strain SEC055): 0.06 µg/mL (≈ 0.156 µM)
- MIC ([3]; strain SEC057): 0.13 µg/mL (≈ 0.339 µM)
- MIC ([3]; strain SEC058): 0.06 µg/mL (≈ 0.156 µM)
- MIC ([3]; strain SEC059): 0.06 µg/mL (≈ 0.156 µM)
- MIC ([3]; strain SEC060): 0.06 µg/mL (≈ 0.156 µM)
- MIC ([3]; strain SEC061): 0.03 µg/mL (≈ 0.0782 µM)
- MIC ([3]; strain SEC062): 0.03 µg/mL (≈ 0.0782 µM)
- MIC ([3]; strain SEC063): > 4 µg/mL
- MIC ([3]; strain SEC064): 0.06 µg/mL (≈ 0.156 µM)
- MIC ([3]; strain SEC065): 0.03 µg/mL (≈ 0.0782 µM)
- MIC ([3]; strain SEC067): 0.06 µg/mL (≈ 0.156 µM)
- MIC ([3]; strain SEC068): > 4 µg/mL
- MIC ([3]; strain SEC069): 2 µg/mL (≈ 5.22 µM)
- MIC ([3]; strain SEC070): 0.03 µg/mL (≈ 0.0782 µM)
- MIC ([3]; strain SEC071): 0.03 µg/mL (≈ 0.0782 µM)
- MIC ([3]; strain SEC072): 0.06 µg/mL (≈ 0.156 µM)
- MIC ([3]; strain SEC073): 0.13 µg/mL (≈ 0.339 µM)
- MIC ([3]; strain SEC074): 0.06 µg/mL (≈ 0.156 µM)
- MIC ([3]; strain SEC075): 0.13 µg/mL (≈ 0.339 µM)
- MIC ([3]; strain SEC076): 0.06 µg/mL (≈ 0.156 µM)
- MIC ([3]; strain SEC077): 0.5 µg/mL (≈ 1.3 µM)
- MIC ([3]; strain SEC078): > 4 µg/mL
- MIC ([3]; strain SEC079): 0.06 µg/mL (≈ 0.156 µM)
- MIC ([3]; strain SEC080): 0.03 µg/mL (≈ 0.0782 µM)
- MIC [4]: 0.06 µg/mL (≈ 0.156 µM)
Structure (SMILES): C[C@@H](O)[C@H]1C(=O)N2C(C(=O)O)=C(S[C@@H]3CN[C@H](C(=O)N(C)C)C3)[C@H](C)[C@H]12 [meropenem, reference compound]
